Kd data for one compound are collected here from PMC5217690 (The Journal of Biological Chemistry, 2016).

Structures are written as SMILES. Positions count from the first letter of the chain named.

In assay [1] the target is T1, TrmDEC (Escherichia coli, UniProt P0A873, Y86L).
T1 construct: gene trmD; full-length, N-terminal His tag (pET28b), expressed in E. coli BL21(DE3), tag kept
T1 sequence (P0A873 2-255 Y86L): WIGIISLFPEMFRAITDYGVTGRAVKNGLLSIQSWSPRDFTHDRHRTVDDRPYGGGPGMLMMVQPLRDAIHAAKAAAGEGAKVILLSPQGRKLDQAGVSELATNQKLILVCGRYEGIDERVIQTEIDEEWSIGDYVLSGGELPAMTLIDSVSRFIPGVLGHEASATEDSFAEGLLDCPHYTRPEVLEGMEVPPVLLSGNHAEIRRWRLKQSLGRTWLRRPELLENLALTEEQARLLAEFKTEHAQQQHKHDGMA
Description: ITC. In kind it is binding.

The target in assay [2] is T2, TrmDEC (Escherichia coli, UniProt P0A873, Y86F).
T2 construct: gene trmD; full-length, N-terminal His tag (pET28b), expressed in E. coli BL21(DE3), tag kept
T2 sequence (P0A873 2-255 Y86F): T1 sequence (P0A873 2-255 Y86L) with L85F
The experiment in a line: ITC. The format is binding.

For `C[S+](CC[C@H](N)C(=O)O)C[C@H]1O[C@@H](n2cnc3c(N)ncnc32)[C@H](O)[C@@H]1O` (some centres unmarked) [AdoMet], the dissociation constant (Kd) on TrmDEC [1] came out at 69.9 µM; on TrmDEC [2], 27.9 µM.
